Assay results: the Deep4Chem optical property database
Values joined by “and” are separate entries in the source; they are usually repeats but may differ in a detail not shown here. Equal entries are not always repeated. Each block holds one compound with its values, some of them ahead of it.

Assay: solvent given as SMILES

Structure (SMILES): Cc1cc(C)c(C2=C3C=C(c4ccc(C(C)(C)C)cc4)C(c4ccc(C(C)(C)C)cc4)=[N+]3[B-](F)(F)n3c2cc(-c2ccc(C(C)(C)C)cc2)c3-c2ccc(C(C)(C)C)cc2)c(C)c1
emission maximum (in C1CCCCC1): 639 nm
emission maximum (in C1CCOC1): 628 nm
emission maximum (in CC#N): 643 nm
emission maximum (in Cc1ccccc1): 645 nm
emission maximum (in ClCCl): 644 nm

Structure (SMILES): CN(C)c1ccc(/C=C/C(=O)c2ccc(Cl)cc2)cc1
emission maximum (in C1CCOC1): 516 nm
emission maximum (in CC#N): 540 nm
emission maximum (in CC(=O)O): 521 nm
emission maximum (in CC(C)=O): 532 nm
emission maximum (in CCO): 542 nm
emission maximum (in CN(C)C=O): 542 nm
emission maximum (in CO): 544 nm
emission maximum (in Cc1ccccc1): 486 nm
emission maximum (in ClC(Cl)Cl): 522 nm
emission maximum (in c1ccccc1): 488 nm

Structure (SMILES): Cc1ccc(N2C(c3ccccc3N(C)C)=NC(c3ccccc3)C2c2ccccc2)cc1 (stereo unspecified)
emission maximum (in Cc1ccccc1): 422 nm

emission maximum (in ClCCl): 431 nm
Structure (SMILES): c1ccc(-c2c3ccccc3c(-c3ccc4ccccc4c3)c3ccccc23)nc1

emission maximum (in C1CCOC1): 440 nm
Structure (SMILES): COc1ccc2c(c1)c1ccc3cccc4c5cccc6oc(=O)c2c(c65)c1c34

emission maximum (in ClC(Cl)Cl): 814 nm
Structure (SMILES): COc1ccc(C2=c3sc(-c4ccc(OC)cc4)cc3=[N+]3C2=Nc2c(-c4ccc(OC)cc4)c4sc(-c5ccc(OC)cc5)cc4n2[B-]3(F)F)cc1

emission maximum (in ClCCl): 572 nm
emission maximum (in OCC(F)(F)F): 560 nm
Structure (SMILES): C=CCOc1nnc(OCCC(F)(F)C(F)(F)C(F)(F)C(F)(F)C(F)(F)C(F)(F)C(F)(F)C(F)(F)F)nn1

Structure (SMILES): C#CCOc1ccc(C2=[N+]3C(=Nc4c(-c5ccccc5)cc(-c5ccc(O)cc5)n4[B-]3(F)F)C(c3ccccc3)=C2)cc1
emission maximum (in CO): 716 nm
emission maximum (in Cc1ccccc1): 711 nm
emission maximum (in ClC(Cl)Cl): 708 nm

emission maximum (in ClC(Cl)Cl): 337 nm
Structure (SMILES): c1cc2cc(c1)c1cccc(c1)c1cccc(c1)c1cccc(c1)c1cccc(c1)c1cccc2c1

emission maximum (in ClC(Cl)Cl): 442 nm
Structure (SMILES): C[Si](C)(C)c1sc([Si](C)(C)C)c2c1sc1c3sc4c(sc5c4sc4c([Si](C)(C)C)sc([Si](C)(C)C)c45)c3sc12

Structure (SMILES): CC(C)(C)c1ccc2c(c1)c1cc(C(C)(C)C)ccc1n2-c1ccc(C(=CC#N)c2ccc(-n3c4ccc(C(C)(C)C)cc4c4cc(C(C)(C)C)ccc43)cc2)cc1
emission maximum (in Cc1ccccc1): 450 nm

Structure (SMILES): CC(C)(C)c1ccc2c(c1)c1cc(C(C)(C)C)ccc1n2-c1ccc(S(=O)(=O)c2ccc(-n3c4ccc(C(C)(C)C)cc4c4cc(C(C)(C)C)ccc43)cn2)nc1
emission maximum (in Cc1ccccc1): 444.37 nm
emission maximum (in O=P(c1ccccc1)(c1ccccc1)c1ccc2sc3cccc(P(=O)(c4ccccc4)c4ccccc4)c3c2c1): 444 nm

Structure (SMILES): CCCCCCCCCCCCCCCCOc1cc(C#Cc2ccc3ccccc3c2)c(OCCCCCCCCCCCCCCCC)cc1C#Cc1ccc(C=C(C#N)C#N)cc1
emission maximum (in Brc1ccccc1): 582 nm
emission maximum (in C1CCCCC1): 484 nm
emission maximum (in C1CCOC1): 602 nm
emission maximum (in C1COCCO1): 554 nm
emission maximum (in CCCCCC): 480 nm
emission maximum (in CCCCCCCCO): 596 nm
emission maximum (in CCCCOCCCC): 524 nm
emission maximum (in CCOC(C)=O): 590 nm
emission maximum (in CCOCC): 550 nm
emission maximum (in Cc1ccccc1): 530 nm
emission maximum (in ClC(Cl)(Cl)Cl): 500 nm
emission maximum (in ClC(Cl)Cl): 596 nm
emission maximum (in ClCCl): 618 nm

emission maximum (in CCO): 641 nm
emission maximum (in ClC(Cl)Cl): 644 nm
emission maximum (in ClCCl): 644 nm
Structure (SMILES): CCN(CC)c1ccc2c(-c3ccccc3C(=O)O)c3c([o+]c2c1)/C(=C/Nc1ccccc1)CCC3

emission maximum (in ClC(Cl)Cl): 556 nm
Structure (SMILES): CCC1=C(C)C2C(c3ccc(-c4ccc(-c5nc6c7ccccc7c7ccccc7c6n5-c5ccc(C(C)(C)C)cc5)cc4)cc3)c3c(C)c(CC)c(C)n3[B-](F)(F)[N+]2=C1C (stereo unspecified)

emission maximum (in C1COCCO1): 428 nm
Structure (SMILES): c1ccc(-c2nc(-c3ccc(-c4ccc(-c5nc(-c6ccccc6)c(-c6ccccc6)o5)cc4)cc3)oc2-c2ccccc2)cc1

emission maximum (in CN(C)C=O): 537 nm
Structure (SMILES): Nc1ccc(N2C(=O)c3ccc4c5ccc6c7c(ccc(c8ccc(c3c48)C2=O)c75)C(=O)N(c2ccc(O)cc2)C6=O)cc1

emission maximum (in C1CCCCC1): 451 nm
Structure (SMILES): CCCCc1cc2cccc[n+]2[b-]2c(-c3cccc4[b-]3[n+]3ccccc3cc4CCCC)cccc21

emission maximum (in C1CCOC1): 368.6 nm
Structure (SMILES): CCCCCCCCCCCCCCn1c(-c2cc(-c3nc4ccc(C)cc4n3CCCCCCCCCCCCCC)cc(-c3nc4ccc(C)cc4n3CCCCCCCCCCCCCC)c2)nc2ccc(C)cc21

emission maximum (in C1CCOC1): 444 nm
Structure (SMILES): C1=Cc2ccccc2C(=Cc2ccc(C=C3c4ccccc4-c4ccccc43)cc2)c2ccccc21

emission maximum (in C1CCCCC1): 344 nm
Structure (SMILES): COC(=O)c1nc(Cl)c(-c2ccccc2)o1

Structure (SMILES): CCN(CC)c1ccc2cc(-c3cc(SC)c(C#N)c(=O)o3)c(=O)oc2c1
emission maximum (in C1CCOC1): 558 nm
emission maximum (in CC#N): 578 nm
emission maximum (in CC(C)=O): 573 nm
emission maximum (in CCOC(C)=O): 554 nm
emission maximum (in CN(C)C=O): 585 nm
emission maximum (in CO): 582 nm
emission maximum (in CS(C)=O): 593 nm
emission maximum (in Cc1ccccc1): 533 nm
emission maximum (in ClC(Cl)Cl): 547 nm
emission maximum (in ClCCl): 560 nm

Structure (SMILES): COc1ccc(C2=C(c3ccc(-c4ccccc4)cc3)C(c3ccccc3)=[N+]3C2=Nc2c(-c4ccc(OC)cc4)c(-c4ccc(-c5ccccc5)cc4)c(-c4ccccc4)n2[B-]3(F)F)cc1
emission maximum (in Cc1ccccc1): 716 nm

emission maximum (in ClC(Cl)Cl): 448 nm
Structure (SMILES): c1ccc2c(c1)oc1nc3oc4ccc(-n5c6ccccc6c6ccccc65)cc4c3cc12

emission maximum (in ClCCl): 687 nm
Structure (SMILES): CCOC(=O)COc1ccc(/C=C/C2=C3C(C)=CC(C)=[N+]3[B-](F)(F)n3c2c2ccccc2c3-c2[nH]c(C)cc2C)cc1

emission maximum (in ClCCl): 430 nm
Structure (SMILES): CCn1c2ccc(-c3ccc(-c4cccs4)s3)cc2c2cc(-c3ccc(-c4cccs4)s3)ccc21

emission maximum (in C1COCCO1): 400 nm
emission maximum (in CC#N): 451 nm
emission maximum (in CCCCCC): 346 nm
emission maximum (in CCCCCCC): 347 nm
emission maximum (in CCCO): 425 nm
emission maximum (in CCOC(C)=O): 408 nm
emission maximum (in CS(C)=O): 462 nm
emission maximum (in ClC(Cl)Cl): 404 nm
emission maximum (in ClCCl): 417 nm
Structure (SMILES): COc1ccc(C#Cc2ccc(C#N)cc2)cc1OC

emission maximum (in ClC(Cl)Cl): 413 nm
Structure (SMILES): C(#Cc1ccccc1)C(C#Cc1ccccc1)=Cc1cccc(C=C(C#Cc2ccccc2)C#Cc2ccccc2)c1

emission maximum (in C1CCOC1): 390 nm
Structure (SMILES): F[B-]1(F)Oc2ccccc2-c2n(-c3ccc(C(F)(F)F)cc3)c(-c3ccccc3)c(-c3ccccc3)[n+]21

emission maximum (in C1CCCCC1): 329 nm
emission maximum (in CC#N): 340 nm
emission maximum (in CO): 345 nm
emission maximum (in O): 350 nm
Structure (SMILES): CCOC(=O)CCOc1ccccc1C(c1c(C)[nH]c2ccccc12)c1c(C)[nH]c2ccccc12

Structure (SMILES): Cc1cc(C)c(B(c2ccc(N3c4ccccc4Oc4ccccc43)cc2)c2c(C)cc(C)cc2C)c(C)c1
emission maximum (in C1CCCCC1): 475.13 nm
emission maximum (in C1CCOC1): 602.56 nm
emission maximum (in CN(C)C=O): 665.64 nm
emission maximum (in Cc1ccccc1): 540 nm
emission maximum (in ClCCl): 598.46 nm

emission maximum (in CC#N): 470 nm
Structure (SMILES): CC(C)Oc1ccc(C#Cc2ccc3ccc(=O)oc3c2)cc1

emission maximum (in c1ccccc1): 564 nm
Structure (SMILES): Cc1nc2c(ccc3ccc(N(C)C)cc32)oc1=O

emission maximum (in CN(C)C=O): 671 nm
Structure (SMILES): c1ccc(CO[Si]23n4c5c6ccccc6c4/N=C4N=C(/N=c6/c7ccccc7c(n62)=c2c6ccccc6c(n23)=N5)c2ccccc2\4)cc1 (stereo unspecified)

emission maximum (in ClCCl): 744 nm
Structure (SMILES): C1=Cc2nc1c(-c1ccccc1)c1ccc([nH]1)c(-c1ccccc1)c1cc(c(-c3ccccc3)c3ccc([nH]3)c2-c2ccccc2)N=C1

emission maximum (in ClCCl): 576 nm
Structure (SMILES): COc1ccc(C#Cc2c3ccccc3c(C#Cc3ccc(OC)cc3)c3cc4ccccc4cc23)cc1

Structure (SMILES): O=P1(c2ccccc2)C(c2cc(C(F)(F)F)cc(C(F)(F)F)c2)=Cc2c3ccc4cccc5ccc(c6cc(-c7ccc(N(c8ccccc8)c8ccccc8)cc7)n1c26)c3c45 (stereo unspecified)
emission maximum (in C1CCCCC1): 558 nm
emission maximum (in C1CCOC1): 620 nm
emission maximum (in C1COCCO1): 595 nm
emission maximum (in CC#N): 645 nm
emission maximum (in CC(C)=O): 635 nm
emission maximum (in CO): 636 nm
emission maximum (in Cc1ccccc1): 586 nm
emission maximum (in ClC(Cl)Cl): 603 nm
emission maximum (in ClCCl): 622 nm

emission maximum (in C1CCCCC1): 390 nm
emission maximum (in CO): 400 nm
Structure (SMILES): C(=C\c1nc2ccccc2s1)/c1ccccc1

Structure (SMILES): N#Cc1ccc(-c2ccc(C3=CCC(c4ccccc4)CC3)s2)s1 (stereo unspecified)
emission maximum (in C1CCOC1): 442 nm
emission maximum (in CC#N): 448 nm
emission maximum (in CCCCCC): 427 nm
emission maximum (in CCO): 444 nm
emission maximum (in OCCOCCO): 452 nm
emission maximum (in c1ccncc1): 452 nm

emission maximum (in CC(C)(C)O): 441 nm
emission maximum (in CC(C)CO): 451 nm
emission maximum (in CC(C)O): 453 nm
emission maximum (in CCCCO): 457 nm
emission maximum (in CCCO): 458 nm
emission maximum (in CCO): 462 nm
emission maximum (in CN(C)C=O): 425 nm
emission maximum (in CNC=O): 459 nm
emission maximum (in CO): 467 nm
emission maximum (in NC=O): 464 nm
emission maximum (in O): 483 nm
Structure (SMILES): COCCOc1ccc(OCCOC)c(C=O)c1

emission maximum (in CCO): 659 nm
emission maximum (in CS(C)=O): 625 nm
emission maximum (in O): 643 nm
Structure (SMILES): CC1(C)C(/C=C/c2cc3ccc(O)cc3oc2=O)=[N+](CCCS(=O)(=O)[O-])c2ccc3c(S(=O)(=O)O)cc(S(=O)(=O)O)cc3c21

emission maximum (in ClCCl): 568 nm
Structure (SMILES): c1ccc(C2=C(c3ccccc3)c3cccc4c3c(cc3nc5cc(-c6ccc(N(c7ccccc7)c7ccccc7)cc6)c(-c6ccc(N(c7ccccc7)c7ccccc7)cc6)cc5nc34)O2)cc1

Structure (SMILES): c1cc2ccc3ccc4cc3c2cc1CCCCCCc1ccc2ccc3ccc-4cc3c2c1
emission maximum (in Cc1ccccc1): 376 nm

emission maximum (in CC#N): 308 nm
Structure (SMILES): Cc1cc(=O)[nH]c(=O)[nH]1

Structure (SMILES): COc1cc(OC)c(C2=C3C(C)=CC(C)=[N+]3[B-](F)(F)n3c(C)cc(C)c32)c(OC)c1
emission maximum (in C1CCOC1): 517 nm
emission maximum (in CC#N): 513 nm
emission maximum (in CC(=O)C(C)(C)C): 517 nm
emission maximum (in CC(C)=O): 515 nm
emission maximum (in CCCCCC): 520 nm
emission maximum (in CCOC(C)=O): 511 nm
emission maximum (in CO): 515 nm

emission maximum (in CC#N): 475 nm
emission maximum (in CCCCCC): 453 nm
emission maximum (in CO): 476 nm
emission maximum (in c1ccccc1): 467 nm and 460 nm
Structure (SMILES): O=c1oc2ccc3ccccc3c2nc1-c1ccccc1

emission maximum (in CC#N): 417 nm
emission maximum (in CCCCCCCCCCCCCCCC): 388 nm
emission maximum (in CO): 449 nm
emission maximum (in ClC(Cl)Cl): 409 nm
emission maximum (in c1ccccc1): 400 nm
Structure (SMILES): CC(C)(C)C1Nc2ccccc2C(=O)N1c1ccccc1 (stereo unspecified)
